Measured values: patent publication US12171229B2, “Heteroaryl-triazole and heteroaryl-tetrazole compounds as pesticides” (BAYER AKTIENGESELLSCHAFT, priority 2018, dated 2024)

Key:
Format in all cases: in vivo
Meloidogyne incognita = Meloidogyne incognita test; conditions: 20 ppm; after 14 days; salad seedlings
Method: Meloidogyne incognita—Test Solvent: 125.0 parts by weight of acetone To produce a suitable preparation of active compound, 1 part by weight of active compound is mixed with the stated amount of solvent, and the concentrate is diluted with water to the desired concentration. Vessels are filled with sand, a solution of the active ingredient, a suspension containing eggs and larvae of the southern root-knot nematode (Meloidogyne incognita) and salad seeds. The salad seeds germinate and the seedlings grow. Galls develop in the roots. After 14 days the nematicidal activity is determined on the basis of the percentage of gall formation. 100% means no galls were found and 0% means the number of galls found on the roots of the treated plants was equal to that in untreated control plants.

Ctenocephalides felis [1] = assay: Ctenocephalides felis in-vitro contact test, adult cat flea; conditions: 5 μg/cm^2 (=500 g/ha), after 48 hours, adult cat fleas, read-out: efficacy (fleas dead or moribund)
In short: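 Compound in acetone coated onto inner walls of glass tubes, e.g. 900 ppm giving 5 μg/cm². After drying, 5–10 adult C. felis added per tube and held at room temperature. At 48 h, fleas unable to escape a 45–50 °C heating plate within 5 min scored dead/moribund, giving % efficacy.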

[2] = test system: Aedes aegypti strain MONHEIM; assay: Aedes aegypti test (AEDSAE surface treatment & contact assay); conditions: 24 hours after contact, read-out: efficacy (mortality); for mortality at 4 mg/m2: surface concentration 4 mg/m^2, exposure 30 minutes; for mortality at 20 mg/m2: surface concentration 20 mg/m^2, exposure 30 minutes
In short: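 Compound dissolved in acetone (2 mg/ml) with 2000 ppm rapeseed oil methyl ester, applied to glazed tile and dried; adult strain MONHEIM mosquitoes exposed 30 minutes. Percent mortality scored 24 hours after contact.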

Spodoptera frugiperda = Spodoptera frugiperda spray test; conditions: 168 h, after 7 days, larvae on maize leaf sections
In short: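 Leaf-spray assay on maize: sections treated with active ingredient at the desired concentration in emulsifier-containing water (1000 ppm) and, once dry, exposed to armyworm caterpillars. Kill rate is expressed in percent after seven days.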

[3] = test system: Musca domestica strain WHO-N; assay: Musca domestica test (MUSCDO surface treatment & contact assay); conditions: 24 hours after contact, read-out: efficacy (mortality); for mortality at 20 mg/m2: surface concentration 20 mg/m^2, exposure 30 minutes
Method: Musca domestica test (MUSCDO surface treatment & contact assay)
(§1) Solvent: Aceton+2000 ppm rapeseed oil methyl ester (RME)
(§2) In order to produce a sufficient, active ingredient containing solution it is necessary to solve the test compound in the solvent-mix (acetone at 2 mg/ml/RME 2000 ppm). This solution is pipetted onto a glazed tile and after evaporation of the acetone, adult flies of the species Musca domestica strain WHO-N are placed onto the dried surface. The exposure time is 30 minutes.
Mortality in percent (%) is determined 24 hours after contact of the insects to the treated surface. 100% morality means that all tested insects are dead, whereas 0% means that no insect died.

Nezara viridula = Nezara viridula spray test; conditions: 96 h, after 4 days, larvae on barley plants
In short: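 Mortality (%) was assessed at day 4, from 0% (no bugs dead) to 100% (all dead). The spray solution was compound diluted to test concentration in water with 1000 ppm emulsifier and applied to barley carrying southern green stink bug larvae.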

Boophilus microplus = Boophilus microplus injection test; conditions: Rhipicephalus microplus, 168 h; 20 μg/animal injected into the abdomen; adult engorged female ticks; egg deposition after 7 days; read-out: efficacy (infertile eggs)
In short: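 Efficacy, from 0% (all eggs fertile) to 100% (all infertile), was scored on eggs laid by five engorged adult females. Each female was injected intra-abdominally with 1 μl of compound solution in DMSO. Fertile egg laying was checked at 7 days, with uncertain eggs kept until hatching at about 42 days.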

Rhipicephalus sanguineus = Rhipicephalus sanguineus in-vitro contact test, adult brown dog ticks; conditions: 5 μg/cm^2 (=500 g/ha), after 48 hours, read-out: efficacy (ticks dead or moribund)
Method: Rhipicephalus Sanguineus—In-Vitro Contact Tests with Adult Brown Doe Ticks
9 mg compound is solved in 1 ml acetone and diluted with acetone to the desired concentration. 250 μl of the test solution is filled in 25 ml glass test tubes and homogeneously distributed on the inner walls by rotation and tilting on a shaking device (2 h at 30 rpm). With a compound concentration of 900 ppm, an inner surface of 44.7 cm^2 and a homogeneous distribution, a dose of 5 μg/cm^2 is achieved.
After the solvent has evaporated, each test tube is filled with 5-10 adult brown dog ticks (Rhipicephalus sanguineus), closed with a perforated lid and incubated in a lying position at room temperature and relative humidity. After 48 hours efficacy is determined. The ticks are patted on the ground of the tubes and are incubated on a heating plate at 45-50° C. for at most 5 minutes. Immotile or uncoordinated moving ticks, which are not able to escape the heat by climbing upwards, are marked as dead or moribund.
An efficacy of 100% means all ticks are dead or moribund; 0% means no ticks are dead or moribund.

Myzus persicae = Myzus persicae oral test; conditions: 120 h, after 5 days
In short: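 Aphid mortality (%) was recorded 5 days after a mixed Myzus persicae population began sucking, through parafilm, on compound solutions (acetone stock diluted with water) combined with sugar-supplemented IPL41 medium.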

[4] = test system: Culex quinquefasciatus strain P00; assay: Culex quinquefasciatus test (CULXFA surface treatment & contact assay); conditions: 24 hours after contact, read-out: efficacy (mortality)
In short: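 Compound dissolved in acetone (2 mg/ml) with 2000 ppm rapeseed oil methyl ester, applied to glazed tile and dried; adult C. quinquefasciatus strain P00 exposed to surface for 30 minutes. Mortality (%) scored 24 hours after contact.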

[5] = test system: Blattella germanica strain PAULINIA; assay: whole plant or invertebrate; conditions: read-out: efficacy (mortality)
Method: Blattella Germanica Test (BLTTGE Surface Treatment & Contact Assay)
as §1
as §2, with “animals” for “flies”, “Blattella germanica” for “Musca domestica”, “PAULINIA” for “WHO-N”
Mortality in percent (%) is determined 24 hours after contact of the insects to the treated surface. 100% mortality means that all tested insects are dead, whereas 0% means that no insect died.

Diabrotica balteata = Diabrotica balteata spray test; conditions: Diabrotica balteata, in Triticum aestivum, 168 h, after 7 days, larvae on wheat seeds, read-out: efficacy (seedlings grown up); for pest or weed control at 80 µg/disc, 250 g/ha: 80 μg/well (=250 g/ha); for pest or weed control at 160 µg/disc, 500 g/ha: 160 μg/well (=500 g/ha)
In short: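 Scoring at 7 days compares seedling growth with untreated, uninfested controls (100% = equal growth, 0% = none grown). Wheat seedlings germinated 1 day on agar, 5 per well, received a spray of test solution made in 1000 ppm emulsifier water. Each unit then received 10–20 beetle larvae.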

Ctenocephalides felis [6] = assay: Ctenocephalides felis oral test; conditions: 48 h, 100 ppm in cattle blood, after 2 days, adult unfed cat fleas
In short: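 Compound dissolved in DMSO and diluted in cattle blood to test concentration, offered to ~20 unfed adult fleas via a parafilm-sealed blood chamber held at 37° C (fleas at room temperature). Kill recorded at 2 days as % mortality.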

Phaedon cochleariae = Phaedon cochleariae spray test; conditions: foliar, 168 h, after 7 days, larvae on Chinese cabbage leaf disks
Method: Phaedon Cochleariae—Spray Test
(§3) To produce a suitable preparation of active compound, 1 part by weight of active compound is mixed with the stated amount of solvents and is diluted with water, containing an emulsifier concentration of 1000 ppm, to the desired concentration. Further test concentrations are prepared by dilution with emulsifier containing water.
Chinese cabbage (Brassica pekinensis) leaf disks are sprayed with a preparation of the active ingredient of the desired concentration. Once dry, the leaf disks are infested with mustard beetle larvae (Phaedon cochleariae).
After 7 days mortality in % is determined. 100% means all beetle larvae have been killed and 0% means none of the beetle larvae have been killed.

Tetranychus urticae = Tetranychus urticae spray test (OP-resistant); conditions: foliar, 144 h, after 6 days, French bean leaf disks
Method: Tetranychus urticae—Spray Test (OP-Resistant)
as §3
French bean (Phaseolus vulgaris) leaf disks infected with all instars of the two spotted spidermite (Tetranychus urticae), are sprayed with a preparation of the active ingredient of the desired concentration.
After 6 days mortality in % is determined. 100% means all spider mites have been killed and 0% means none of the spider mites have been killed.

[7] = surface concentration 4 mg/m^2, exposure 30 minutes

SMILES: C[C@H](NC(=O)c1cc(Cl)cc(C(F)(F)F)c1)c1ncnn1-c1ncc(C#N)cn1 [Example I-010]
- nematicidal activity (gall formation) (Meloidogyne incognita): 100%
- pest or weed control at 5 µg/cm2 (Ctenocephalides felis [1]): 100%
- mortality at 4 mg/m2 [2]: 90 to 100%
- mortality at 20 mg/m2 [2]: 90 to 100%
- mortality at 100 g/ha (Spodoptera frugiperda): 100%
- mortality at 500 g/ha (Spodoptera frugiperda): 100%
- mortality at 20 mg/m2 [3]: 90 to 100%
- mortality at 100 g/ha (Nezara viridula; 100 g/ha): 100%
- mortality at 500 g/ha (Nezara viridula): 100%
- pest or weed control at 0.02 mg (Boophilus microplus): 100%
- pest or weed control at 5 µg/cm2 (Rhipicephalus sanguineus): 100%
- mortality at 4 ppm (Myzus persicae; 4 ppm): 100%

SMILES: C[C@H](NC(=O)c1cc(Cl)cc(C(F)(F)F)c1)c1ncnn1-c1ncc(OC(F)(F)F)cn1 [Example I-011]
- mortality at 4 mg/m2 [4, 7]: 90 to 100%
- mortality at 20 mg/m2 ([4]; surface concentration 20 mg/m^2, exposure 30 minutes): 90 to 100%
- mortality at 20 mg/m2 [5]: 80 to 100%
- pest or weed control at 80 µg/disc, 250 g/ha (Diabrotica balteata): 100%
- pest or weed control at 160 µg/disc, 500 g/ha (Diabrotica balteata): 100%
- mortality at 100 ppm (Ctenocephalides felis [6]): 100%
- pest or weed control at 5 µg/cm2 (Ctenocephalides felis [1]): 100%
- mortality at 4 mg/m2 [2]: 90 to 100%
- mortality at 20 mg/m2 [2]: 90 to 100%
- mortality at 100 g/ha (Spodoptera frugiperda): 100%
- mortality at 500 g/ha (Spodoptera frugiperda): 100%
- mortality at 4 mg/m2 [3, 7]: 90 to 100%
- mortality at 20 mg/m2 [3]: 90 to 100%
- mortality at 500 g/ha (Nezara viridula): 100%
- pest or weed control at 0.02 mg (Boophilus microplus): 100%

SMILES: CC(c1ncnn1-c1nccs1)N(CC1CC1)C(=O)c1cc(Cl)cc(C(F)(F)F)c1 (stereo not drawn) [Example I-003]
- pest or weed control at 80 µg/disc, 250 g/ha (Diabrotica balteata): 100%
- pest or weed control at 160 µg/disc, 500 g/ha (Diabrotica balteata): 100%
- mortality at 100 ppm (Ctenocephalides felis [6]): 100%
- pest or weed control at 5 µg/cm2 (Ctenocephalides felis [1]): 100%
- mortality at 500 g/ha (Phaedon cochleariae): 100%
- mortality at 500 g/ha (Spodoptera frugiperda): 100%
- pest or weed control at 0.02 mg (Boophilus microplus): 100%
- mortality at 500 g/ha (Tetranychus urticae): 90%
- mortality at 20 ppm (Myzus persicae; 20 ppm): 90%
